Assay results published in patent publication US20230203471A1, “METHOD AND PLATFORM FOR DISRUPTING INTRACELLULAR MICROTUBULES” (National Tsing Hua University, priority 2021, published 2023).
Values belong to the molecule of their own block, whether it stands above or below them.

What was measured:
spastin = target: T1, spastin (Mus musculus, UniProt Q9QYY8, K308Q/K309Q/K310Q); test: Reversal of MT disruption by spastin inhibition and MT regrowth in HeLa cells; format: cell-based; details: spastazoline 10 µM added after 28 min rapamycin; dNSpastin3Q-YFP-FKBP and EMTB-CFP-FRB HeLa cells
T1 construct: expressed in transfected cells; host or cells: HeLa (CCL-2)
T1 sequence (Q9QYY8 with tags, fused parts or gaps K308Q/K309Q/K310Q): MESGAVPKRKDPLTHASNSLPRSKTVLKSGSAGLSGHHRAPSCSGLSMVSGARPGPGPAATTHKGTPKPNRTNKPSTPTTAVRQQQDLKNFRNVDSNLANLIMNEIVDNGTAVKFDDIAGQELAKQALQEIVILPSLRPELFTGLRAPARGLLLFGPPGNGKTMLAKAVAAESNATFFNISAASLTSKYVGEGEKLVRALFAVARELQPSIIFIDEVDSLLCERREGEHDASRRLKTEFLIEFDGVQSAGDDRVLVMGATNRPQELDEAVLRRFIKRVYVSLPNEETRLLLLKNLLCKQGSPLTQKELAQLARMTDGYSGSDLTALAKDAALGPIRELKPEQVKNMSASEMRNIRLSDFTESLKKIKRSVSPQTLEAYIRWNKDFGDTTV
Procedure: FIGS. 2S to 2U show inhibition of spastin activity reverses MT disruption. In FIG. 2S, HeLa cells co-transfected with EMTB—CFP—FRB (black) and dNSpastin3Q-YFP-FKBP (green) were pre-treated with rapamycin for 28 min to induce acute MT disassembly; spastazoline (10 µM), a spastin inhibitor, was then added to the cultures to halt the MT disruption system; arrows indicate the centrosome-derived MTs; scale bar, 10 µm. […] Data (red) are shown as the mean ± SD. A Student’s t-test was performed to generate the indicated p-value.
Intriguingly, nascent MTs from the fragments derived from dNspastin3Q-mediated cleavage assembled at a polymerization rate of 0.92 ± 0.04 µm/sec, which was slightly slower than the regrowth rate of 1.17 ± 0.07 µm/sec for MTs from centrosomes (see FIG. 2U). […] In particular, microtubule filaments are composed of microtubule molecules. If they are only disassembled into microtubule molecules and the raw materials are still there, they would have the opportunity to quickly assemble them back. But if the microtubule molecules are degraded and the raw materials are gone, they can’t be quickly reassembled. In summary, rapid recruitment of dNSpastin3Q-YFP-FKBP onto MTs efficiently triggered MT disassembly in living cells upon dimerization induction.

[1] = target: TagRFP-FRB-A1AY1 (Artificial Sequence); test: live-cell imaging, addition of rapamycin
[2] = tested on: tyrosinated MTs in COS7 cells; test: Targeting of TagRFP-FRB-A1AY1 and rapamycin-induced recruitment onto A1AY1-bound MTs; format: cell-based, African green monkey
Procedure: (§1) The procedures of immunofluorescence staining are as follows. Cells cultured in borosilicate glass Lab-Tek eight-well chambers (Nunc) were fixed in 4% paraformaldehyde (Electron Microscopy Sciences) at room temperature for 15 min. Fixed cells were permeabilized with 0.1% Triton X-100 and then incubated in blocking solution (phosphate-buffered saline with 2% bovine serum albumin) for 30 min at room temperature. To label cytosolic MTs, primary ciliary membrane, and axonemal MTs, cells were incubated for 1 hr at room temperature with mouse antibody against α-tubulin (1:500; Sigma Aldrich, T6199), rabbit antibody against Arl13b (1:500; Proteintech, 17711-1-AP), mouse antibody against glutamylated tubulin (1:100; Adipogen, AG-20B-0020-C100), mouse antibody against acetylated tubulin (1:500; Sigma Aldrich, T7451), rat antibody against tyrosinated tubulin (1:100; Sigma Aldrich, MAB1864), and mouse antibody against detyrosinated tubulin (1:100; MERCK, AB3201) each of which was diluted in blocking solution. Cells were then washed with PBS and incubated for 1 hr with appropriate secondary antibodies (1:1000 dilution; Thermo Fisher) at room temperature.
MTs undergo various post-translational modification (PTMs) for spatiotemporally regulating their properties and functions. The inventors next turned efforts to precisely disrupt MTs with specific PTMs. […]

[3] = tested on: EMTB-CFP-FRB-labeled MTs in HeLa cells; test: Rapamycin-induced translocation of FKBP-tagged proteins onto EMTB-CFP-FRB-labeled MTs (FRET, live-cell imaging); format: cell-based; details: 100 nM rapamycin, FRET signal
Procedure: (§2) The procedures of live-cell imaging are as follows. Live transfected cells cultured on poly(d-lysine)-coated glass coverslips (Hecht Assistent) were treated with either 100 nM rapamycin for rapid induction of protein dimerization and translocation or MT-targeting agents (10 µM nocodazole or 500 µM colchicine) during imaging. Live-cell imaging was conducted on a Nikon T1 inverted fluorescence microscope (Nikon) with a 60× oil objective (Nikon), a Prime camera (Photometrics), and 37° C., 5% CO2 heat stage (Live Cell Instrument). Rapid recruitment of proteins of interest (POIs) was imaged at 5- or 10-sec intervals, whereas the process of MT disruption was imaged at 1-min intervals. Images were obtained using Nikon NIS-Elements AR software and processed with Huygens Deconvolution Software (Scientific Volume Imaging). Image analysis was mainly performed with Nikon NIS-Elements AR software.
FIGS. 1B and 1C show the MT-binding domain of ensconsin-cyan fluorescent protein-FKBP-rapamycin binding domain (EMTB—CFP—FRB) localizes to cytosolic MTs. […] Scale bar, 10 µm. […] Subsequently, the addition of rapamycin to HeLa cells led to the rapid translocation of yellow fluorescent protein-tagged FKBP (YFP—FKBP) onto EMTB—CFP—FRB-labeled MTs as evidenced by an increased FRET (fluorescence resonance energy transfer) signal on MTs (T½ of translocation: 5.73 ± 0.54 sec; FIGS. 1D and 1E). […]

[4] = tested on: intracellular microtubules in HeLa cells; test: Live-cell imaging of MT disruption (MT filament area) in transfected HeLa cells; format: cell-based; details: HeLa cells co-transfected with EMTB-CFP-FRB, upon rapamycin (100 nM) treatment
Procedure: as §2
The procedures of measurement of MT filament area are as follows. The MT filaments in living cells were labeled with EMTB-CFP-FRB and imaged in real time (RAW image). The rolling ball correction was used to remove the cytosol background from the RAW images, which was carried out with the Nikon NIS-Elements AR software. Images were processed to generate the binary MT filament pattern via the Otsu threshold and analyzed by Fiji software.
FIGS. 2D and 2E show rapidly recruiting engineered spastins onto MTs. […] The top three layers are cells that simultaneously express EMTB-CFP-FRB and dNSpastin3Q-YFP-FKBP. The lower three layers are cells that simultaneously express EMTB-CFP-FRB and dNSpastin-YFP-FKBP-C2Lact. The color bar on the right indicates the brightness value represented by the color of the FRET signal. […] Data are shown as the mean ± S.E.M. It was noteworthy that MT disruption triggered by dNSpastin3Q-YFP-FKBP upon rapamycin treatment (T½ = 11.05 ± 1.52 min) was much faster than that of dNSpastin-YFP-FKBP-C2Lact upon rapamycin treatment (T½ = 53.08 ± 8.08 min), and treatment of two common MTAs, nocodazole (10 µM; T½ = 54.02 ± 10.29 min), colchicine (500 µM; T½ = 94.28 ± 8.63 min; see FIGS. 2F to 2J). […] In FIG. 2H, HeLa cells transfected with the indicated constructs were treated with nocodazole (Noc)([…], a type of MTA), colchicine (Col)(500 µM, a type of MTA), or rapamycin (Rapa)(100 nM); scale bar, 10 µm. […] Data are shown as the mean ± S.E.M. Student’s t-tests were performed, with the resulting p-values indicated.

[5] = tested on: cytosolic MTs in HeLa cells; test: Immunofluorescence staining of α-tubulin in HeLa cells expressing spastin constructs; format: cell-based; details: HeLa cells co-transfected with EMTB-CFP-FRB
Procedure: as §1
Spastin is a MT-cleaving enzyme that is ubiquitous in nearly all eukaryotic cells. Expression of full-length spastin (SpastinFL-YFP; the amino acid sequence of spastin is SEQ ID NO: 1) and truncated spastin without the N-terminal 1-140 amino acids (dNSpastin-YFP) in HeLa cells removed significant amounts of cytosolic MTs, 47.45% and 42.86%, respectively, relative to YFP-transfected control cells (See FIGS. 2A to 2C). This means that both full-length spastin and truncated spastin without N-terminal 1-140 amino acids have the effect on disrupting microtubules. FIGS. 2A to 2C show the microtubule cleavage activity of artificially engineered spastin enzyme. […] The dotted line on the right indicates the periphery of the cell that expresses spastin. […] SpastinFL expressed in cells can disrupt the intracellular microtubules. Making SpastinFL be located in the cytosol, truncated spastin would also disrupt the intracellular microtubules, so it would also be located in the cytosol. […] The truncated spastin is used in the subsequent experiments. […] Compared with the YFP control group, both SpastinFL-YFP and dNSpastrin-YFP can disrupt about 40% of the microtubules. Thus the N-terminal fragment (1-140 amino acids) was dispensable for Spastin-mediated MT severing. […]

Molecule: CC(C)[C@@H]1CN(c2nc(Nc3cc(C(C)(C)C)[nH]n3)c3cc[nH]c3n2)CCN1 [spastazoline, reference compound]
effect of spastin inhibitor on rapamycin-mediated MT disruption (spastin): swiftly reversed rapamycin-mediated acute MT disruption

T½ of recruitment [1]: 1.08 min
Molecule: TagCFP, tagged FKBP (TagCFP-FKBP)

Molecule: TagCFP—FKBP: cyan fluorescent protein TagCFP-tagged FKBP [reference compound]
T½ of recruitment onto TagRFP-FRB-A1AY1-bound MTs ([2]; addition of rapamycin): 1.078 ± 0.268 min

Molecule: YFP—FKBP: yellow fluorescent protein-tagged FK506-binding protein [reference compound]
T½ of translocation from cytosol onto EMTB-CFP-FRB-labeled MTs [3]: 0.0955 ± 0.009 min

Molecule: dNSpastin-YFP-FKBP-C2Lact: truncated spastin tagged with YFP-FKBP and plasma membrane-binding sequence C2Lact
T½ of MT disruption [4]: 53.08 ± 8.08 min
T½ of translocation from cytosol onto EMTB-CFP-FRB-labeled MTs [3]: 0.924 ± 0.14 min
MT disruption after rapamycin treatment ([5]; 100 nM rapamycin 1 hr): robustly disrupted MTs
MT-severing activity before rapamycin treatment ([5]; 0.1% DMSO): low MT-severing activities

B1: TagRFP—FRB—A1AY1: A1AY1 (SEQ ID NO:16), targets tyrosinated MTs, tagged with FRB and red fluorescent protein TagRFP (protein)
chain: MVSKGEELIKENMHMKLYMEGTVNNHHFKCTSEGEGKPYEGTQTMRIKVVEGGPLPFAFDILATSFMYGSRTFINHTQGIPDFFKQSFPEGFTWERVTTYEDGGVLTATQDTSLQDGCLIYNVKIRGVNFPSNGPVMQKKTLGWEANTEMLYPADGGLEGRTDMALKLVGGGHLICNFKTTYRSKKPAKNLKMPSVYYVDHRLERIKEADKETYVEQHEVAVARYCDLPSKLGHKLNLYKILWHEMWHEGLEEASRLYFGERNVKGMFEVLEPLHAMMERGPQTLKETSFNQAYGRDLMEAQEWCRKYMKSGNVKDLLQAWDLYYHVFRRISKMATVKFKYKGEEKQVDISKILSVGRYGKLIHFLYDLGGGKAGMGMVSEKDAPKELLQMLEKQKK
targeting of construct to MT subtypes ([2]; COS7 cells, immunostaining): preferentially targeted to generic MTs and tyrosinated MTs but not to detyrosinated MTs
